Patent publication US8853418B2, “Cyclopentylpyrazoles as N-type calcium channel blockers” (Janssen Pharmaceutica NV, priority 2012, dated 2014)
Where two headings read alike, the source gives them in different places.

Target: N-type calcium channel (α1B (Cav2.2), β3 and α2δ subunits) (Homo sapiens, UniProt Q00975)
Assay: Functional Assay: Antagonism of N-Type Calcium Channel (FDSS calcium mobilization, KCl depolarization)
Assay type: cell-based
Protocol: A stable cell line (HEK parent) co-expressing the α1B (Cav2.2), β3 and α2δ subunits of the N-type calcium channel subunits was used. These cells were routinely grown as monolayers in low glucose-containing Dulbecco's Modified Eagle Medium supplemented with 10% FBS, 2 mM L-glutamine, 100 I.U./mL penicillin, 100 μg/mL streptomycin, 400 μg/mL G418 and 200 μg/mL Zeocin (split ratio=1:5). Cells were maintained in 5% CO2 at 37° C. Compounds of Formula (I) were prepared as 10 mM stocks in DMSO from neat compound, if available. Otherwise, the 5 or 10 mM DMSO stock solutions provided in-house were used.
Calcium mobilization responses to KCl depolarization were evaluated by measuring the intensity of calcium-mediated fluorescent signal in the presence of BD Calcium Assay Dye (BD Biosciences, Franklin Lakes, N.J., U.S.A.), utilizing a Functional Drug Screening System (FDSS) by Hamamatsu Corporation (Bridgewater, N.J. U.S.A.).
Twenty-four hr prior to assay, cells were seeded in clear-base poly-D-lysine-coated 384-well plates (BD Biosciences) at a density of 5,000 cells per well in culture medium and grown overnight in 5% CO2 at 37° C. On the day of assay, growth media were removed, and cells were loaded with BD calcium assay dye (BD Biosciences) for 35 min at 37° C. under 5% CO2 and then for 25 min at room temp. Utilizing the FDSS, cells were exposed to representative compounds of Formula (I) at varying concentrations, and intracellular calcium was measured for 5 min prior to the addition of 50 mM KCl for an additional 3 min of measurement.
Calculations and Formulas
IC50 values for representative compounds of Formula (I) were determined from six-point concentration-response experiments and represent the concentration of said compound required to inhibit 50% of the maximal response. Maximal fluorescence intensity (FI) achieved upon addition of 50 mM KCl was exported from the FDSS software and further analyzed using GraphPad Prism 3.02 (Graph Pad Software Inc., San Diego, Calif., U.S.A.). Data were normalized to the maximum average counts from quadruplicate wells for each condition in the presence of 50 mM KCl and to the minimum average counts in the presence of buffer. Theoretical curves were generated using nonlinear regression curve-fitting analysis of either sigmoidal concentration-response or sigmoidal concentration-response (variable slope), and the IC50 values with the best-fit curve determined by GraphPad Prism were reported.

[1] = HEK cell line, 50 mM KCl depolarization, six-point concentration-response, read-out: FDSS IC50

Sequence of N-type calcium channel (α1B (Cav2.2), β3 and α2δ subunits) (Q00975 whole entry): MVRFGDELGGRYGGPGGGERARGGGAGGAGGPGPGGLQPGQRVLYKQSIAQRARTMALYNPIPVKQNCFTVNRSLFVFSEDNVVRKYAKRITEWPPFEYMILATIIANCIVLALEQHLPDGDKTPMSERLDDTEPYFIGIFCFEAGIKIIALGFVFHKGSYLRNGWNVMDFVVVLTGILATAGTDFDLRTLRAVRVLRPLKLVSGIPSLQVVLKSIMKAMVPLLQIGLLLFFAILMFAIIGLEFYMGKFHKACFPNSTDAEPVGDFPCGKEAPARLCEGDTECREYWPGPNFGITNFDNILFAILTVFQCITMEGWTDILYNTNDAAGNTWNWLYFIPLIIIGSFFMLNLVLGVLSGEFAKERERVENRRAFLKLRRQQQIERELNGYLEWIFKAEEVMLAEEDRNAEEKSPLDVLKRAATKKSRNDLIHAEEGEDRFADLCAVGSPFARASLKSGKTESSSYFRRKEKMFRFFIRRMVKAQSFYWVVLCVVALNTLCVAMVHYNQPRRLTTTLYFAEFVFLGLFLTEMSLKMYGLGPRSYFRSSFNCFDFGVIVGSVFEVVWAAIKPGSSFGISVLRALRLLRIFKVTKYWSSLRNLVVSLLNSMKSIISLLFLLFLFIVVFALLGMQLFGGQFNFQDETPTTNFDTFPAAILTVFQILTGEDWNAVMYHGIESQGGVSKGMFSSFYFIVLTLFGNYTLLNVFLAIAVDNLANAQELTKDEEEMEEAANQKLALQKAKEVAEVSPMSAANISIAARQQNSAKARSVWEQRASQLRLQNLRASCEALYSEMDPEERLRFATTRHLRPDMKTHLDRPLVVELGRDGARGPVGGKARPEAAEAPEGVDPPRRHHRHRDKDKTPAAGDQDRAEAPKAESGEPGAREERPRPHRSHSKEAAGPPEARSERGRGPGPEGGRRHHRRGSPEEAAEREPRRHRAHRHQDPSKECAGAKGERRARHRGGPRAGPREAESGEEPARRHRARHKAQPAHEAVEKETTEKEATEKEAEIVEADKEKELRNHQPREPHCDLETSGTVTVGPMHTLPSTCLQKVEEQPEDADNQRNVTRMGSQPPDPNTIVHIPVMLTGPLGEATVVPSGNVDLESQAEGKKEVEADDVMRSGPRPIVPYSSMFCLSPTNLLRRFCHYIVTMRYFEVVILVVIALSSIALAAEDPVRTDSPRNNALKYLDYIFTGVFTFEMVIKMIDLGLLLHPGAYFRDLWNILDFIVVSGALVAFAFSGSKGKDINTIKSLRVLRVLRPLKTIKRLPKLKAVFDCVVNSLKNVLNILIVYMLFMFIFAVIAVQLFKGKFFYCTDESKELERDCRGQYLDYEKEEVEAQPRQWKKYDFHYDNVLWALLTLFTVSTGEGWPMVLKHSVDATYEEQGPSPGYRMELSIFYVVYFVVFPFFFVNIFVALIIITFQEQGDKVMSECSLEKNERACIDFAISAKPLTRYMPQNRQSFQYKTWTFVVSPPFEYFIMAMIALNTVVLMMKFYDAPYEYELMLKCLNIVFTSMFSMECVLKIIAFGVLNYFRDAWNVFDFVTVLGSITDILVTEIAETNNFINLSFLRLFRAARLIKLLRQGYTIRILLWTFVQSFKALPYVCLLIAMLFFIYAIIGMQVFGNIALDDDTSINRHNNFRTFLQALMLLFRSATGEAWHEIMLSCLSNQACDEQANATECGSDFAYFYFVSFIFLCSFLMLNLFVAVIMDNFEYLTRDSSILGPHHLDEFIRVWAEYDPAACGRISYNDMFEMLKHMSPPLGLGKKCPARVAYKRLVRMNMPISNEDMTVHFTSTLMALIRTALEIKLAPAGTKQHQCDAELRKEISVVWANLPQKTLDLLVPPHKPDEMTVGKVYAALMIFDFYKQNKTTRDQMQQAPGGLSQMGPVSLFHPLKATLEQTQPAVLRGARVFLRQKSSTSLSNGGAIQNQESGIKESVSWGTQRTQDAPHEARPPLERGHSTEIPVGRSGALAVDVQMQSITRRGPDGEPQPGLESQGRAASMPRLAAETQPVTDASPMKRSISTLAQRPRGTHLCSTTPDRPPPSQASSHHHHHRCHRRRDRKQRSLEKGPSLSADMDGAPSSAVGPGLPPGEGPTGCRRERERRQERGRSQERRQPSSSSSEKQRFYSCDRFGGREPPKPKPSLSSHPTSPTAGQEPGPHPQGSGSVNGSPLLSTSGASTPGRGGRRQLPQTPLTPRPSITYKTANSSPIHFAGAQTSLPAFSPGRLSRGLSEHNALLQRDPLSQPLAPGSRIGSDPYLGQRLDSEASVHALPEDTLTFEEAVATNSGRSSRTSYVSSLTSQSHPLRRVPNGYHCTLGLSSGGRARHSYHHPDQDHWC
Sequence of N-type calcium channel (α1B (Cav2.2), β3 and α2δ subunits) (P54284 whole entry partner): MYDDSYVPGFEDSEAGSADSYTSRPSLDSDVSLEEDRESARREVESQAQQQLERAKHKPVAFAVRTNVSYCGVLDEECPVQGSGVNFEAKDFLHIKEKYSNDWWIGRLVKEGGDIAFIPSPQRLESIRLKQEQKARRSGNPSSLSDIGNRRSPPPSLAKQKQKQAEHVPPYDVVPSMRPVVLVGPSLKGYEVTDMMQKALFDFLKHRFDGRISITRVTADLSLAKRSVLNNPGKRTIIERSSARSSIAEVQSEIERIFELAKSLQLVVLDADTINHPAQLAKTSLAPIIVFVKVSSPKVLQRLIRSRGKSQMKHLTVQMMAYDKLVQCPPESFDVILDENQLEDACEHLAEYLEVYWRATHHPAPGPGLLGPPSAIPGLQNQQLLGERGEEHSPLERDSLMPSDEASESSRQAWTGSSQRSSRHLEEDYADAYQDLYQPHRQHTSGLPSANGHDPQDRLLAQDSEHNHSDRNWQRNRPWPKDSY
Sequence of N-type calcium channel (α1B (Cav2.2), β3 and α2δ subunits) (P54289 25-946 partner limits assumed): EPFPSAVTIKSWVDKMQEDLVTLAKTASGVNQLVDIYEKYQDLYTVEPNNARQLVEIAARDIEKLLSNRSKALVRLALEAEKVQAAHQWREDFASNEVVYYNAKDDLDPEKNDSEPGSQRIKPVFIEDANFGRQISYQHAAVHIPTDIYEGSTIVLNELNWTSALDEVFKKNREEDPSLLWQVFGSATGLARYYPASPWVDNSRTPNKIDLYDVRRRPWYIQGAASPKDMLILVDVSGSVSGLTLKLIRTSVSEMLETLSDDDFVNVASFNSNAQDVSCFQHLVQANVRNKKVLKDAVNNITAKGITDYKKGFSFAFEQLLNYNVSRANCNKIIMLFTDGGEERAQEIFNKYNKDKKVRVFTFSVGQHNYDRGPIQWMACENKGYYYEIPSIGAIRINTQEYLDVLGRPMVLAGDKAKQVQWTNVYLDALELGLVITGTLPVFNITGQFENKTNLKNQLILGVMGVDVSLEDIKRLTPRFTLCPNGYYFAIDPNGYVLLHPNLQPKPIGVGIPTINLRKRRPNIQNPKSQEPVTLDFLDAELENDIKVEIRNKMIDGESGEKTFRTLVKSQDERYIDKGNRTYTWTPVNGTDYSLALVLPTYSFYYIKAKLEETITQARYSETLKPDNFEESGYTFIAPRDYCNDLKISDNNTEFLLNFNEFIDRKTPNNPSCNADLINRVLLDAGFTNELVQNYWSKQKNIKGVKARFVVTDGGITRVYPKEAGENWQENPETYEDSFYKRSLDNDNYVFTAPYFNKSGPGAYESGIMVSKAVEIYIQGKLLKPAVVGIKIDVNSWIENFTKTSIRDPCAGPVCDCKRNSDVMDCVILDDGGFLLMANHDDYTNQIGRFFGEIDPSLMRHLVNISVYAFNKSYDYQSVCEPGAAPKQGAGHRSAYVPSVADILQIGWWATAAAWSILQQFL
Sequence of N-type calcium channel (α1B (Cav2.2), β3 and α2δ subunits) (P54289 947-1103 partner limits assumed): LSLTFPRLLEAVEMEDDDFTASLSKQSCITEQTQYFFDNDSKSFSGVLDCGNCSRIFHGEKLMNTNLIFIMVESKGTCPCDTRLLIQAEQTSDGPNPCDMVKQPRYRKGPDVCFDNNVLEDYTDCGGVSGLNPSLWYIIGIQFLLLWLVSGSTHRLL

Structure (SMILES)	inhibition at 0.33 µM (0.33 μM) [%]	IC50 [1] [nM]	inhibition at 0.33 µM [%]	IC50 (FDSS IC50) [nM]
COc1ccccc1-n1nc2c(c1-c1ccc(Cl)cc1)CC(C1CNc3ccccc3C1)C2 (stereo not drawn) [Compound 65, 3-[3-(4-chlorophenyl)-2-(2-methoxyphenyl)-2,4,5,6-tetrahydrocyclopenta[c]pyrazol-5-yl]-1,2,3,4-tetrahydroquinoline]	59	280	–	–
CCOC(=O)c1cncc(C2Cc3nn(-c4ccccc4OC)c(-c4ccc(Cl)cc4)c3C2)c1 (stereo not drawn) [Compound 66, Ethyl 5-[3-(4-chlorophenyl)-2-(2-methoxyphenyl)-2,4,5,6-tetrahydrocyclopenta[c]pyrazol-5-yl]pyridine-3-carboxylate]	79	66	–	–
CCC(CC)CO[C@@H]1Cc2nn(-c3ccccc3OC)c(-c3ccc(Cl)cc3)c2C1 [Compound 72, (5S)-3-(4-chlorophenyl)-5-(2-ethylbutoxy)-2-(2-methoxyphenyl)-2,4,5,6-tetrahydrocyclopenta[c]pyrazole]	78	61	–	–
COc1ccccc1-n1nc2c(c1-c1ccc(Cl)cc1)CC(c1ccc(C)nc1)C2 (stereo not drawn) [Compound 73, 3-(4-chlorophenyl)-2-(2-methoxyphenyl)-5-(6-methylpyridin-3-yl)-2,4,5,6-tetrahydrocyclopenta[c]pyrazole]	81	86	–	–
CCOc1ccc(C2Cc3nn(-c4ccccc4OC)c(-c4ccc(Cl)cc4)c3C2)cn1 (stereo not drawn) [Compound 74, 3-(4-chlorophenyl)-5-(6-ethoxypyridin-3-yl)-2-(2-methoxyphenyl)-2,4,5,6-tetrahydrocyclopenta[c]pyrazole]	61	150	–	–
COc1ccccc1-n1nc2c(c1-c1ccc(Cl)cc1)CC(c1ccc(C(C)C)nc1Cl)C2 (stereo not drawn) [Compound 75, 5-[2-Chloro-6-(1-methylethyl)pyridin-3-yl]-3-(4-chlorophenyl)-2-(2-methoxyphenyl)-2,4,5,6-tetrahydrocyclopenta[c]pyrazole]	53	230	–	–
COc1ccccc1-n1nc2c(c1-c1ccc(Cl)cc1)CC(c1ccc(C3CC3)nc1)C2 (stereo not drawn) [Compound 77, 3-(4-chlorophenyl)-5-(6-cyclopropylpyridin-3-yl)-2-(2-methoxyphenyl)-2,4,5,6-tetrahydrocyclopenta[c]pyrazole]	81	62	–	–
COc1ccccc1-n1nc2c(c1-c1ccc(Cl)cc1)C[C@H](OCC1CCCCC1)C2 [Compound 82, (5S)-3-(4-chlorophenyl)-5-(cyclohexylmethoxy)-2-(2-methoxyphenyl)-2,4,5,6-tetrahydrocyclopenta[c]pyrazole]	–	–	76	130
COc1ccccc1-n1nc2c(c1-c1ccc(Cl)cc1)C[C@H](OCC1CCCC1)C2 [Compound 83, (5S)-3-(4-chlorophenyl)-5-(cyclopentylmethoxy)-2-(2-methoxyphenyl)-2,4,5,6-tetrahydrocyclopenta[c]pyrazole]	–	49	92	–
COc1ccccc1-n1nc2c(c1-c1ccc(Cl)cc1)C[C@H](OCC1CCC1)C2 [Compound 84, (5S)-3-(4-chlorophenyl)-5-(cyclobutylmethoxy)-2-(2-methoxyphenyl)-2,4,5,6-tetrahydrocyclopenta[c]pyrazole]	–	–	80	–
COc1ccccc1-n1nc2c(c1-c1ccc(Cl)cc1)C[C@H](OC(=O)C1CCOCC1)C2 [Compound 86, (5S)-3-(4-chlorophenyl)-2-(2-methoxyphenyl)-2,4,5,6-tetrahydrocyclopenta[c]pyrazol-5-yl tetrahydro-2H-pyran-4-carboxylate]	82	82	–	–
COc1ccccc1-n1nc2c(c1-c1ccc(Cl)cc1)C[C@H](OCC1CCOCC1)C2 [Compound 87, (5S)-3-(4-chlorophenyl)-2-(2-methoxyphenyl)-5-(tetrahydro-2H-pyran-4-ylmethoxy)-2,4,5,6-tetrahydrocyclopenta[c]pyrazole]	82	92	–	–
COc1ccccc1-n1nc2c(c1-c1ccc(Cl)cc1)CC(C(C)C)C2 (stereo not drawn) [Compound 92, 3-(4-chlorophenyl)-2-(2-methoxyphenyl)-5-(1-methylethyl)-2,4,5,6-tetrahydrocyclopenta[c]pyrazole]	–	–	43	–
CCOc1ccc(-c2c3c(nn2-c2ccccc2OC)CC2(C3)OCC(C)(C)CO2)cn1 [Compound 94, 3-(6-ethoxypyridin-3-yl)-2-(2-methoxyphenyl)-5′,5′-dimethyl-2,6-dihydro-4H-spiro[cyclopenta[c]pyrazole-5,2′-[1,3]dioxane]]	81	60	–	–
COc1ccccc1-n1nc2c(c1-c1ccc(C)nc1)CC1(C2)OCC(C)(C)CO1 [Compound 95, 2-(2-methoxyphenyl)-5′,5′-dimethyl-3-(6-methylpyridin-3-yl)-2,6-dihydro-4H-spiro[cyclopenta[c]pyrazole-5,2′-[1,3]dioxane]]	67	110	–	–
COc1ccccc1-n1nc2c(c1-c1ccc(Cl)cc1)CC(C1CCCCC1)C2 (stereo not drawn) [Compound 104, 3-(4-chlorophenyl)-5-cyclohexyl-2-(2-methoxyphenyl)-2,4,5,6-tetrahydrocyclopenta[c]pyrazole]	61	140	–	–
COc1ccccc1-n1nc2c(c1-c1ccc(C#N)cc1)CC(CC1CCCCC1)C2 (stereo not drawn) [Compound 106, 4-[5-(cyclohexylmethyl)-2-(2-methoxyphenyl)-2,4,5,6-tetrahydrocyclopenta[c]pyrazol-3-yl]benzonitrile]	64	270	–	–
COc1ccccc1-n1nc2c(c1-c1ccc(Cl)cc1)CC(N1CC(C)OC(C)C1)C2 (stereo not drawn) [Compound 116, 3-(4-chlorophenyl)-5-(2,6-dimethylmorpholin-4-yl)-2-(2-methoxyphenyl)-2,4,5,6-tetrahydrocyclopenta[c]pyrazole]	77	48	–	–
COc1ccccc1-n1nc2c(c1-c1ccc(Cl)cc1)CC(N1CCC(C)CC1)C2 (stereo not drawn) [Compound 117, 3-(4-chlorophenyl)-2-(2-methoxyphenyl)-5-(4-methylpiperidin-1-yl)-2,4,5,6-tetrahydrocyclopenta[c]pyrazole]	75	44	–	–
CCC1(CC)CCN(C2Cc3nn(-c4ccccc4OC)c(-c4ccc(Cl)cc4)c3C2)C1 (stereo not drawn) [Compound 118, 3-(4-chlorophenyl)-5-(3,3-diethylpyrrolidin-1-yl)-2-(2-methoxyphenyl)-2,4,5,6-tetrahydrocyclopenta[c]pyrazole]	76	46	–	–
COc1ccccc1-n1nc2c(c1-c1ccc(Cl)cc1)CC(N1CCC(C)(C)C1)C2 (stereo not drawn) [Compound 119, 3-(4-chlorophenyl)-5-(3,3-dimethylpyrrolidin-1-yl)-2-(2-methoxyphenyl)-2,4,5,6-tetrahydrocyclopenta[c]pyrazole]	76	84	–	–
COc1ccccc1-n1nc2c(c1-c1ccc(Cl)s1)CC1(C2)OCC(C)(C)CO1 [Compound 120, 3-(5-chlorothiophen-2-yl)-2-(2-methoxyphenyl)-5′,5′-dimethyl-2,6-dihydro-4H-spiro[cyclopenta[c]pyrazole-5,2′-[1,3]dioxane]]	78	91	–	–
